Where two headings read alike, the source gives them in different places.
Tests used:
[1] = system: Puccinia triticina; experiment: Wheat Brown Rust fungicidal activity (PUCCRT); assay type: in vivo; conditions: Puccinia triticina; for pest or weed control at 100 ppm: rate 100 ppm; for pest or weed control at 121.5 g/ha: rate 121.5 g/H
Method: Technical grades of materials were dissolved in acetone, which were then mixed with nine volumes of water containing 110 ppm Triton X-100. The fungicide solutions were applied onto wheat seedlings using an automated booth sprayer to run-off. All sprayed plants were allowed to air dry prior to further handling. All fungicides were evaluated using the aforementioned method for their activity vs. all target diseases. Wheat leaf blotch and brown rust activity were also evaluated using track spray applications, in which case the fungicides were formulated as EC formulations, containing 0.1% Trycol 5941 in the spray solutions. Wheat plants (variety Yuma) were grown from seed in a greenhouse in 50% mineral soil/50% soil-less Metro mix until the first leaf was fully emerged, with 7-10 seedlings per pot. These plants were inoculated with an aqueous spore suspension of Septoria tritici either prior to or after fungicide treatments. After inoculation the plants were kept in 100% relative humidity (one day in a dark dew chamber followed by two to three days in a lighted dew chamber at 20° C.) to permit spores to germinate and infect the leaf. The plants were then transferred to a greenhouse set at 20° C. for disease to develop. When disease symptoms were fully expressed on the 1st leaves of untreated plants, infection levels were assessed on a scale of 0 to 100 percent disease severity. Percent disease control was calculated using the ratio of disease severity on treated plants relative to untreated plants. Evaluation of Fungicidal Activity: Wheat Brown Rust (Puccinia triticina; Synonym: Puccinia recondite f sp. tritici; Bayer code PUCCRT) Wheat plants (variety Yuma) were grown from seed in a greenhouse in 50% mineral soil/50% soil-less Metro mix until the first leaf was fully emerged, with 7-10 seedlings per pot. These plants were inoculated with an aqueous spore suspension of Puccinia triticina either prior to or after fungicide treatments. After inoculation the plants were kept in a dark dew room at 22° C. with 100% relative humidity overnight to permit spores to germinate and infect the leaf. The plants were then transferred to a greenhouse set at 24° C. for disease to develop. Fungicide formulation, application and disease assessment followed the procedures as described in the Example A.

[2] = system: Mycosphaerella graminicola; Anamorph: Septoria tritici; experiment: Leaf Blotch of Wheat fungicidal activity (SEPTTR); assay type: in vivo; conditions: Zymoseptoria tritici; for pest or weed control at 100 ppm: rate 100 ppm; for pest or weed control at 121.5 g/ha: rate 121.5 g/H
Method: Evaluation of Fungicidal Activity: Leaf Blotch of Wheat (Mycosphaerella graminicola; Anamorph: Septoria tritici; Bayer code […]) Technical grades of materials were dissolved in acetone, which were then mixed with nine volumes of water containing 110 ppm Triton X-100. The fungicide solutions were applied onto wheat seedlings using an automated booth sprayer to run-off. All sprayed plants were allowed to air dry prior to further handling. All fungicides were evaluated using the aforementioned method for their activity vs. all target diseases. Wheat leaf blotch and brown rust activity were also evaluated using track spray applications, in which case the fungicides were formulated as EC formulations, containing 0.1% Trycol 5941 in the spray solutions. Wheat plants (variety Yuma) were grown from seed in a greenhouse in 50% mineral soil/50% soil-less Metro mix until the first leaf was fully emerged, with 7-10 seedlings per pot. These plants were inoculated with an aqueous spore suspension of Septoria tritici either prior to or after fungicide treatments. After inoculation the plants were kept in 100% relative humidity (one day in a dark dew chamber followed by two to three days in a lighted dew chamber at 20° C.) to permit spores to germinate and infect the leaf. The plants were then transferred to a greenhouse set at 20° C. for disease to develop. When disease symptoms were fully expressed on the 1st leaves of untreated plants, infection levels were assessed on a scale of 0 to 100 percent disease severity. Percent disease control was calculated using the ratio of disease severity on treated plants relative to untreated plants.

[3] = 24 h, 1 Day Protectant, read-out: Disease control PUCCRT 1DP
[4] = 72 h, 3 Day Curative, read-out: Disease control PUCCRT 3DC
[5] = 24 h, 1 Day Protectant, read-out: Disease control SEPTTR 1DP
[6] = 72 h, 3 Day Curative, read-out: Disease control SEPTTR 3DC

SMILES | pest or weed control at 100 ppm [1, 3] [%] | pest or weed control at 121.5 g/ha [1, 3] [%] | pest or weed control at 100 ppm [1, 4] [%] | pest or weed control at 121.5 g/ha [1, 4] [%] | pest or weed control at 100 ppm [2, 5] [%] | pest or weed control at 121.5 g/ha [2, 5] [%] | pest or weed control at 100 ppm [2, 6] [%] | pest or weed control at 121.5 g/ha [2, 6] [%]
COc1ccnc(C(=O)N[C@H]2COC[C@H](Cc3cccc4ccccc34)[C@@H](OCC(C)C)[C@H](C)OC2=O)c1OCOC(C)=O [Compound F87] | 80 to 100 | 80 to 100 | 80 to 100 | 0 to 80 | 80 to 100 | 80 to 100 | 80 to 100 | 80 to 100
COc1ccnc(C(=O)N[C@H]2COC[C@H](CCc3ccccc3)[C@@H](OC(=O)C3CC3)[C@H](C)OC2=O)c1OCOC(C)=O [Compound F92] | 80 to 100 | 80 to 100 | 80 to 100 | 80 to 100 | 80 to 100 | 80 to 100 | 80 to 100 | 80 to 100
COc1ccnc(C(=O)N[C@H]2COC[C@H](Cc3ccc(F)cc3)[C@@H](OCCCC(F)(F)F)[C@H](C)OC2=O)c1OCOC(C)=O [Compound F93] | 80 to 100 | 80 to 100 | 80 to 100 | 80 to 100 | 80 to 100 | 80 to 100 | 80 to 100 | 80 to 100
COc1ccnc(C(=O)N[C@H]2COC[C@H](Cc3ccc(F)cc3)[C@@H](OC3CCCC3)[C@H](C)OC2=O)c1OCOC(C)=O [Compound F94] | 80 to 100 | 80 to 100 | 80 to 100 | 80 to 100 | 80 to 100 | 80 to 100 | 80 to 100 | 80 to 100
CCCCCO[C@@H]1[C@@H](Cc2ccc(F)cc2)COC[C@H](NC(=O)c2nccc(OC)c2OCOC(C)=O)C(=O)O[C@H]1C [Compound F95] | 80 to 100 |  | 80 to 100 |  | 80 to 100 |  | 80 to 100 | 
COc1ccnc(C(=O)N[C@H]2COC[C@H](Cc3ccc(C)cc3)[C@@H](OC(=O)C3CC3)[C@H](C)OC2=O)c1OCOC(C)=O [Compound F97] | 80 to 100 | 80 to 100 | 80 to 100 | 80 to 100 | 80 to 100 | 80 to 100 | 0 to 80 | 80 to 100
COc1ccnc(C(=O)N[C@H]2COC[C@H](Cc3ccc(C(F)(F)F)cc3)[C@@H](OC(=O)C3CC3)[C@H](C)OC2=O)c1OCOC(C)=O [Compound F98] | 80 to 100 | 80 to 100 | 80 to 100 | 0 to 80 | 80 to 100 | 80 to 100 | 80 to 100 | 0 to 80
COc1ccnc(C(=O)N[C@H]2COC[C@H](Cc3ccc(C(F)(F)F)cc3)[C@@H](OCC(C)C)[C@H](C)OC2=O)c1OCOC(C)=O [Compound F99] | 80 to 100 | 80 to 100 | 80 to 100 | 0 to 80 | 80 to 100 | 80 to 100 | 80 to 100 | 80 to 100
COc1ccnc(C(=O)N[C@H]2COC[C@H](Cc3ccc(C(F)(F)F)cc3)[C@@H](OC3CCCC3)[C@H](C)OC2=O)c1OCOC(C)=O [Compound F100] | 80 to 100 | 80 to 100 | 80 to 100 | 0 to 80 | 80 to 100 | 80 to 100 | 80 to 100 | 0 to 80
CCCO[C@@H]1[C@@H](Cc2ccc(C(F)(F)F)cc2)COC[C@H](NC(=O)c2nccc(OC)c2OCOC(C)=O)C(=O)O[C@H]1C [Compound F101] | 80 to 100 |  | 80 to 100 |  | 80 to 100 |  | 80 to 100 | 
COc1ccnc(C(=O)N[C@H]2COC[C@H](Cc3ccc(C(F)(F)F)cc3)[C@@H](OC(=O)C(C)C)[C@H](C)OC2=O)c1OCOC(C)=O [Compound F102] | 80 to 100 |  | 80 to 100 |  | 80 to 100 |  | 80 to 100 | 
CCCCCO[C@@H]1[C@@H](Cc2ccc(C(F)(F)F)cc2)COC[C@H](NC(=O)c2nccc(OC)c2OCOC(C)=O)C(=O)O[C@H]1C [Compound F103] | 80 to 100 |  | 80 to 100 |  | 80 to 100 |  | 0 to 80 | 
COc1ccnc(C(=O)N[C@H]2COC[C@H](CC(F)(F)F)[C@@H](OCC(C)C)[C@H](C)OC2=O)c1OCOC(C)=O [Compound F104] | 80 to 100 | 80 to 100 | 80 to 100 | 80 to 100 | 80 to 100 | 80 to 100 | 80 to 100 | 80 to 100
COc1ccnc(C(=O)N[C@H]2COC[C@H](CC3CCCC3)[C@@H](OCC(C)C)[C@H](C)OC2=O)c1OCOC(C)=O [Compound F115] | 80 to 100 | 80 to 100 | 80 to 100 | 80 to 100 | 80 to 100 | 80 to 100 | 80 to 100 | 80 to 100
CCCCCO[C@@H]1[C@@H](CC2CCCC2)COC[C@H](NC(=O)c2nccc(OC)c2OCOC(C)=O)C(=O)O[C@H]1C [Compound F116] | 80 to 100 | 80 to 100 | 80 to 100 | 80 to 100 | 80 to 100 | 80 to 100 | 80 to 100 | 80 to 100
COc1ccnc(C(=O)N[C@H]2COC[C@H](CCc3ccccc3)[C@@H](OC(=O)C3CC3)[C@H](C)OC2=O)c1OCOC(=O)C(C)C [Compound F118] | 80 to 100 | 80 to 100 | 80 to 100 | 80 to 100 | 80 to 100 | 80 to 100 | 80 to 100 | 80 to 100
CCCO[C@@H]1[C@@H](Cc2ccc(C(F)(F)F)cc2)COC[C@H](NC(=O)c2nccc(OC)c2OCOC(=O)COCC)C(=O)O[C@H]1C [Compound F120, ((4-methoxy-2-(((3S,7S,8R,9S)-9-methyl-2-oxo-8-propoxy-7-(4-(trifluoromethyl)benzyl)-1,5-dioxonan-3-yl)carbamoyl)pyridin-3-yl)oxy)methyl 2-ethoxyacetate] | 80 to 100 |  | 0 to 80 |  | 80 to 100 |  | 80 to 100 | 

Reference: patent publication US9179674B2, “Macrocyclic picolinamide compounds with fungicidal activity” (DOW AGROSCIENCES LLC, priority 2013, dated 2015)
